Measured values: patent US11826364B2, “Treatment for epilepsy” (Katholieke Universiteit Leuven, priority 2017, dated 2023)

Assays:
zebrafish larvae [1] = experiment: Zebrafish pentylenetetrazole (PTZ) seizure model, behavioral analysis; type: in vivo, zebrafish (Danio rerio); conditions: 2 hours incubation; for antiseizure activity at lower concentrations: MTC/2 and MTC/4
Description: Experiments were performed as [Add references please: Copmans (2018), ACS chemical neuroscience; Copmans et al. (2018) Neurochem. Int. 112, 124-133; Afrikanova et al. (2013) PLoS One 8, e54166; Orellana-Paucar et al. (2012) Epilepsy Behav 24, 14-22]. In brief, a single 7 dpf larva was placed in each well of a 96-well plate and treated with either VHC (1% DMSO) or test compound in a 100 μl volume. Larvae were incubated in dark for 2 hours at 28° C., whereafter 100 μl of either VHC (embryo medium) or 40 mM PTZ (20 mM working concentration) was added to each well. Next, within 5 minutes the 96-well plate was placed in an automated tracking device (ZebraBox Viewpoint, France) and larval behavior was video recorded for 30 minutes. The complete procedure was performed in dark conditions using infrared light. Total locomotor activity was recorded by ZebraLab software (Viewpoint, France) and expressed in actinteg units, which is the sum of pixel changes detected during the defined time interval (5 minutes). Larval behavior was depicted as mean actinteg units per 5 minutes in the 30 minute recording period and over consecutive time intervals. Data are expressed as mean±SD for single experiments with regards to screening, and as mean±SEM for single experiments and for independent experiments of which the means or data are pooled.
In the first secondary screen three replicate wells were used per sample (100 μg/mL) tested and each experimental plate contained 12 internal control wells. In the second secondary screen six replicate wells were used per sample and concentration tested (100, 33, and 11 μg/mL), again 12 internal control wells were used per experimental plate.

zebrafish larvae [2] = experiment: Toxicity evaluation, maximum tolerated concentration (MTC) in zebrafish larvae; type: in vivo, zebrafish (Danio rerio); conditions: highest concentration without death, toxicity or locomotor impairment
Description: Maximum tolerated concentration (MTC) was determined prior to further experiments and used as the highest test concentration. Experiments were described as described in Copmans et al. (2018) ACS chemical neuroscience. MTC was investigated by exposing 12 larvae of 6 dpf to a range of concentrations in a 100 μl volume during 18 hours. The following parameters were investigated after 2 and 18 hours of exposure: touch response, morphology, posture, edema, signs of necrosis, swim bladder, and heartbeat.

zebrafish larvae [3] = experiment: Non-invasive local field potential (LFP) recordings from the optic tectum, zebrafish PTZ seizure model; type: in vivo, zebrafish (Danio rerio); conditions: MTC (20 μg/mL); 2 hours incubation; 10 min recording
Description: Non-invasive LFP recordings were measured from the midbrain (optic tectum) of 7 dpf zebrafish larvae pre-incubated with VHC only, PTZ only, compound and VHC, or compound and PTZ. Experiments were performed as described in Copmans et al. (2018) Neurochem. Int. 112, 124-133;
Copmans (2018) ACS chemical neuroscience. In brief, larvae were incubated for approximately 2 hours with VHC (1% DMSO) or test compound (1% DMSO) in a 100 μL volume. After incubation, an equal volume of VHC (embryo medium) or 40 mM PTZ (20 mM working concentration) was added to the well for 15 minutes prior to recording. These steps occurred at 28° C., while further manipulation and electrophysiological recordings occurred at room temperature (±21° C.). The larva was embedded in 2% low melting point agarose (Invitrogen) and the signal electrode (an electrode inside a soda-glass pipet (1412227, Hilgenberg) pulled with a DMZ Universal Puller (Zeitz, Germany), diameter±20 microns, containing artificial cerebrospinal fluid (ACSF: 124 mM NaCl, 10 mM glucose, 2 mM KCl, 2 mM MgSO4, 2 mM CaCl2, 1.25 mM KH2PO4, and 26 mM NaHCO3, 300-310 mOsmols)) was positioned on the skin covering the optic tectum. A differential extracellular amplifier (DAGAN, USA) amplified the voltage difference between the signal (measured by the signal electrode) and the reference electrode. The differential signal was band pass filtered at 0.3-300 Hz and digitized at 2 kHz via a PCI-6251 interface (National instruments, UK) using WinEDR (John Dempster, University of Strathclyde, UK). A grounding electrode grounded the electrical system. All electrodes were connected with ACSF. Each recording lasted 600 seconds. Manual analysis was completed by quantification of the number, cumulative duration, and mean duration of epileptiform-like events with Clampfit 10.2 software (Molecular Devices Corporation, USA). An electrical discharge was considered epileptiform if it was a poly-spiking event comprising at least 3 spikes with a minimum amplitude of three times the baseline amplitude and a duration of at least 100 milliseconds. Data are expressed as mean±SD.

NMRI mice = experiment: Mouse 6-Hz (44 mA) psychomotor seizure model; type: in vivo; conditions: 30 min before stimulation; for mean seizure duration: Example 7; for mean seizure duration (±SD): Example 8
Description: Experiments were performed as described in Copmans et al. (2018) ACS chemical neuroscience. […] Mice were manually restrained and a drop of ocular anesthetic (0.5% lidocaine) was applied to the corneas before stimulation. Following electrical current stimulation, the mouse was released in a transparent cage for behavioral observation, which was video-recorded. […] In addition, facial and mouth jerking as well as head nodding were observed occasionally. Seizure durations were measured during the experiment by experienced researchers, familiar with the different seizure behaviors. In addition, seizure durations were determined by blinded video analysis to confirm or correct the initial observations. Data are expressed as mean±SD.

[4] = Solubility in the injection solvent (PEG200:DMSO 1:1); type: physicochemical; conditions: 20 mg/kg dose
Description: For experiments with zebrafish larvae, dry samples and compounds were dissolved in 100% dimethyl sulfoxide (DMSO, spectroscopy grade) as 100-fold concentrated stocks and diluted in embryo medium to a final concentration of 1% DMSO content, except for PTZ which was dissolved in embryo medium (0% DMSO). Control groups were treated with 1% DMSO (VHC) in accordance with the final solvent concentration of tested samples or compounds. For mice experiments, a mixture of poly-ethylene glycol M.W. 200 (PEG200) and 100% DMSO (spectroscopy grade) (1:1 PEG200:DMSO) was used as solvent and VHC. Pentylenetetrazole and valproate were purchased from Sigma-Aldrich.

Row | Compound | antiseizure activity at lower concentrations (zebrafish larvae [1]) | PTZ-induced seizure behavior in 5 min time intervals (zebrafish larvae [1]; at MTC) | PTZ-induced seizure behavior in the 30 min recording period (zebrafish larvae [1]; at MTC) | maximum tolerated concentration (MTC) (zebrafish larvae [2]) [µg/mL] | cumulative duration of PTZ-induced epileptiform events (zebrafish larvae [3]) | number of PTZ-induced epileptiform events (zebrafish larvae [3]) | mean seizure duration (±SD) (NMRI mice; 2.5 mg/kg i.p.) [s] | mean seizure duration (±SD) (NMRI mice; 5 mg/kg i.p.) [s] | mean seizure duration (±SD) (NMRI mice; 10 mg/kg i.p.) [s] | solubility in the solvent [4] | PTZ-induced seizure behavior in 5 min time intervals (zebrafish larvae [1]; at the tested concentration) | other results
1 | CC(C)=C1Oc2c(ccc3cc(C)ncc23)C1=O [TMC-120B] | No significant antiseizure activity | significant reduction | significantly lowered | 20 | significantly lowered | significantly lowered | 27 | 23.5 | 10 | poor solubility |  | mean seizure duration (NMRI mice; 2.5 mg/kg i.p.): 27 s; mean seizure duration (NMRI mice; 5 mg/kg i.p.): 23.5 s; mean seizure duration (NMRI mice; 10 mg/kg i.p.): 10 s; mean seizure duration (NMRI mice; 20 mg/kg i.p.): 27.5 s; mean seizure duration (±SD) (NMRI mice; 20 mg/kg i.p.): 27.5 s
2 | CC1=Cc2ccc3c(c2CO1)O[C@@H](C(C)C)C3=O [penicisochroman G] |  |  |  |  |  |  |  |  |  |  | significant reduction | 
3 | Cc1cc2ccc3c(c2cn1)OC(C(C)C)C3=O (stereo not shown) [TMC-120A] | No significant antiseizure activity | significant reduction | not TMC-120A, significantly lowered | 20 | significantly lowered | significantly lowered | 13 | 20 | 17 | poor solubility |  | percentage of larvae with PTZ-induced epileptiform activity (zebrafish larvae [3]): significantly lowered the percentage of larvae with PTZ-induced epileptiform activity by more than half; mean seizure duration (±SD) (NMRI mice; 1.25 mg/kg i.p.): 15 s
4 | Cc1cc2ccc3c(c2cn1)OC(O)(C(C)C)C3=O (stereo not shown) [TMC-120C] |  |  |  |  |  |  |  |  |  |  | significant reduction | PTZ-induced seizure behavior in the 30 min recording period (zebrafish larvae [1]; at the tested concentration): lowered PTZ-induced seizure behavior
5 | CC1=Cc2ccc3c(c2CO1)OC(=C(C)C)C3=O [ustusorane B] |  |  |  |  |  |  |  |  |  |  | significant reduction | 
